Reference: BindingDB's records for doi:10.1021/co200147y (Bristol-Myers Squibb Research and Development, 2012)
Where “and” joins values, the source holds several entries; their conditions need not be identical. Equal entries are not always repeated.

Target: Cannabinoid receptor 1 (Homo sapiens, UniProt P21554)
Assay: Inhibition Assay
Description: Inhibition assay using hCB1.

Chain of Cannabinoid receptor 1 (P21554 whole entry): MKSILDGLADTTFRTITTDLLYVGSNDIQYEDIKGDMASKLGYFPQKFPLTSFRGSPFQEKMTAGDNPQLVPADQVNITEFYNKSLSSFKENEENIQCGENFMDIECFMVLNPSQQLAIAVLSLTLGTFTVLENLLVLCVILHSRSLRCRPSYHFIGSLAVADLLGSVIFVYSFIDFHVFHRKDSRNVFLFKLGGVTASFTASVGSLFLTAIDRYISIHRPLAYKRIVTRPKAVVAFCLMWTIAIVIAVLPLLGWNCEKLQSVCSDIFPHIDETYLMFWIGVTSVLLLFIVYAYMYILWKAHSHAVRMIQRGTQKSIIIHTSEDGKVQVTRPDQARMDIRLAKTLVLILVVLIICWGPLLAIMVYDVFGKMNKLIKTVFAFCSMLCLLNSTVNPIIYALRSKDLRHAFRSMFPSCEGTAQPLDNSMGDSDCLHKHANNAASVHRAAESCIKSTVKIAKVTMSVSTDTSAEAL

Structure (SMILES)	IC50
O=C(NCC1CC1)c1cnn(-c2cccc(Cl)c2)c1-c1ccc(-c2ccccc2)cc1 [hCB1 Inhibitor, 2{5,1,1}]	270 nM and 190 nM
O=C(NCCCc1ccccc1)c1cnn(-c2cccc(Cl)c2)c1-c1ccc(-c2ccccc2)cc1 [hCB1 Inhibitor, 2{1,1,1}]	410 nM and 200 nM
Cc1ccccc1-n1ncc(C(=O)NCCCc2ccccc2)c1-c1ccc(-c2ccccc2)cc1 [hCB1 Inhibitor, 2{1,1,6}]	200 nM
O=C(NCCCc1ccccc1)c1cnn(-c2cccc3ccccc23)c1-c1ccc(-c2ccccc2)cc1 [hCB1 Inhibitor, 2{1,1,3}]	90 nM
Cc1cccc(-n2ncc(C(=O)NCCCc3ccccc3)c2-c2ccc(-c3ccccc3)cc2)c1C [hCB1 Inhibitor, 2{1,1,8}]	200 nM and 40 nM
Cc1cccc(-n2ncc(C(=O)NCC3CC3)c2-c2ccc(-c3ccccc3)cc2)c1 [hCB1 Inhibitor, 2{5,1,7}]	620 nM
CCCCNC(=O)c1cnn(-c2cccc(C)c2)c1-c1ccc(-c2ccccc2)cc1 [hCB1 Inhibitor, 2{6,1,7}]	2700 nM
CCCCNC(=O)c1cnn(-c2cccc(Cl)c2)c1-c1ccc(-c2ccccc2)cc1 [hCB1 Inhibitor, 2{6,1,1}]	500 nM and 350 nM
CCCCNC(=O)c1cnn(-c2ccccc2C)c1-c1ccc(-c2ccccc2)cc1 [hCB1 Inhibitor, 2{6,1,6}]	2800 nM
Cc1cccc(-n2ncc(C(=O)NCCCc3ccccc3)c2-c2ccc(-c3ccccc3)cc2)c1 [hCB1 Inhibitor, 2{1,1,7}]	200 nM
Cc1ccccc1-n1ncc(C(=O)NCC2CC2)c1-c1ccc(-c2ccccc2)cc1 [hCB1 Inhibitor, 2{5,1,6}]	390 nM
